Source: patent publication US7223759B2, “Antibacterial 3,5-diaminopiperidine-substituted aromatic and heteroaromatic compounds” (Anadys Pharmaceuticals, Inc., priority 2003, dated 2007)
Where two headings read alike, the source gives them in different places.

Tested on: Escherichia coli (ATCC25922) or Staphylococcus aureus (ATCC25923)
Assay: Antibacterial MIC, microdilution method in Mueller-Hinton medium
Format: cell-based
Settings: for MIC: Escherichia coli, 18 h, read-out: Potency (MIC)
Method in brief: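 Two-fold serial dilutions from 64 to 0.5 μg/ml, in duplicate, by broth microdilution in Mueller-Hinton medium (NCCLS M7-A5). MIC taken as the lowest concentration preventing visible growth after 18 h at 35° C.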

[1] = MIC in E. coli or S. aureus, two-fold serial dilutions 64 to 0.5 μg/ml in duplicate, 18 hours of incubation at 35° C.

Molecule	MIC [µg/mL]	MIC [1] [µg/mL]	other results
Cc1ccc(C(=O)Nc2ccc(Nc3nc(NC4CCNCC4)nc(N4C[C@H](N)C[C@H](N)C4)n3)cc2O)cc1 [N-{4-[4-((3R,5S)-3,5-Diamino-piperidin-1-yl)-6-(piperidin-4-ylamino)-[1,3,5]triazin-2-ylamino]-2-hydroxy-phenyl}-4-methyl-benzamide]	< 16	–	–
CC(C)c1cc(C(=O)Nc2ccc(Nc3nc(N4C[C@H](N)C[C@H](N)C4)nc(N4C[C@H](N)C[C@H](N)C4)n3)cc2)c(O)c(C(C)C)c1 [N-[4-(2-hydroxy-3,5-diisopropyl-benzoylamino)-phenyl]-4,6-Bis-((3R,5S)-3,5-diamino-piperidin-1-yl)-[1,3,5]triazine-2-amine]	< 16	–	–
Cc1cc(=O)oc2cc(Nc3nc(N4C[C@H](N)C[C@H](N)C4)nc(N4C[C@H](O)C[C@H]4CN)n3)ccc12 [7-[4-((2S,4R)-2-Aminomethyl-4-hydroxy-pyrrolidin-1-yl)-6-((3R,5S)-3,5-diamino-piperidin-1-yl)-[1,3,5]triazin-2-ylamino]-4-methyl-chromen-2-one]	> 64	–	–
N[C@@H]1C[C@H](N)CN(c2nc(Nc3ccc(O)cc3)nc(N3C[C@H](N)C[C@H](N)C3)n2)C1 [N-(4-hydroxy-phenyl)-4,6-Bis-((3R,5S)-3,5-diamino-piperidin-1-yl)-[1,3,5]triazine-2-amine]	–	> 64	–
COc1nc(Nc2ccc3c(c2)C(=O)c2ccccc2-3)nc(N2C[C@H](N)C[C@H](N)C2)n1 [2-[4-((3R,5S)-3,5-Diamino-piperidin-1-yl)-6-methoxy-[1,3,5]triazin-2-ylamino]-fluoren-9-one]	> 64	–	–
Cl.O=C(CC(=O)N1CCC(n2c(=O)[nH]c3ccccc32)CC1)c1ccc(Nc2nc(N3CCCCC3)nc(N3CCCCC3)n2)cc1 [N-(4-{3-oxo-3-[4-(2-oxo-2,3-dihydro-benzoimidazol-1-yl)-piperidin-1-yl]-propionly}-phenyl)-4,6-Bis-((3R,5S)-3,5-diamino-piperidin-1-yl)-[1,3,5]triazine-2-amine]	–	> 64	–
N[C@@H]1C[C@H](N)CN(c2nc(NCc3ccc(-c4ccccc4)cc3)nc(N3C[C@H](N)C[C@H](N)C3)n2)C1 [N-biphenyl-4-ylmethyl-4,6-Bis-((3R,5S)-3,5-diamino-piperidin-1-yl)-[1,3,5]triazine-2-amine]	< 64	–	–
COc1ccc(Nc2ccc(NC(=O)CC(=O)c3ccc(Nc4nc(N5C[C@H](N)C[C@H](N)C5)nc(N5C[C@H](N)C[C@H](N)C5)n4)cc3)cc2)cc1 [N-(4-{2-[4-(4-methoxy-phenylamino)-phenylcarbamoyl]-acetyl}-phenyl)-4,6-Bis-((3R,5S)-3,5-diamino-piperidin-1-yl)-[1,3,5]triazine-2-amine]	–	< 16	–
N[C@@H]1C[C@H](N)CN(c2nc(Nc3cccc(NC(=O)c4ccc(Cl)cc4O)c3)nc(N3C[C@H](N)C[C@H](N)C3)n2)C1 [N-[3-(4-chloro-2-hydroxy-benzoylamino)-phenyl]-4,6-Bis-((3R,5S)-3,5-diamino-piperidin-1-yl)-[1,3,5]triazine-2-amine]	< 16	–	–
Cl.c1ccc(Nc2ccccc2Nc2nc(C3CCCCC3)nc(N3CCCCC3)n2)cc1 [N-(2-pohenylamino-phenyl)-4,6-Bis-((3R,5S)-3,5-diamino-piperidin-1-yl)-[1,3,5]triazine-2-amine]	–	> 64	–
Cl.N[C@@H]1C[C@H](N)CN(c2nc(N3C[C@H](N)C[C@H](N)C3)nc(N3CCc4cc(Br)ccc43)n2)C1 [4-[4-(4,6-Bis-((3R,5S)-3,5-diamino-piperidin-1-yl)-[1,3,5]triazin-2-yl)-piperiazin-1-yl]-phenol]	–	< 64	–
C=Cc1ccc(Nc2nc(N3C[C@H](N)C[C@H](N)C3)nc(N3C[C@H](N)C[C@H](N)C3)n2)cc1 [N-(4-vinyl-phenyl)-4,6-Bis-((3R,5S)-3,5-diamino-piperidin-1-yl)-[1,3,5]triazine-2-amine]	< 64	–	–
Cl.O=[N+]([O-])c1ccc(S(=O)(=O)c2ccc(Nc3nc(N4CCCCC4)nc(N4CCCCC4)n3)cc2)cc1 [N-[4-((2,4-dimethoxy-benzoylamino)-3-hydroxy-phenyl]-4,6-Bis-((3R,5S)-3,5-diamino-piperidin-1-yl)-[1,3,5]triazine-2-amine]	–	< 16	–
Cl.N[C@@H]1C[C@@H](N)CN(c2nc(N3CCC4CCCCC4C3)nc(N3C[C@H](N)C[C@H](N)C3)n2)C1 (stereo partly drawn) [2,4-Biss-((3R,5S)-3,5-diamino-piperidin-1-yl)-6-(4-p-tolyl-piperazin-1-yl)-[1,3,5]triazine]	–	> 64	–
CC(=O)c1ccc(Nc2nc(N3C[C@H](N)C[C@H](N)C3)nc(N3C[C@H](O)C[C@H]3CN)n2)cc1 [1-{4-[4-((2S,4R)-2-Aminomethyl-4-hydroxy-pyrrolidin-1-yl)-6-((3R,5S)-3,5-diamino-piperidin-1-yl)-[1,3,5]triazin-2-ylamino]-phenyl}-ethanone]	> 64	–	–
CCCC(=O)Nc1ccc(Nc2nc(N3C[C@H](N)C[C@H](N)C3)nc(N3C[C@H](N)C[C@H](N)C3)n2)cc1O [N-(4-butyrylamino-3-hydroxy-phenyl)-4,6-Bis-((3R,5S)-3,5-diamino-piperidin-1-yl)-[1,3,5]triazine-2-amine]	> 64	–	–
N[C@@H]1C[C@H](N)CN(c2nc(Nc3ccccc3O)nc(N3C[C@H](N)C[C@H](N)C3)n2)C1 [N-(2-hydroxy-phenyl)-4,6-Bis-((3R,5S)-3,5-diamino-piperidin-1-yl)-[1,3,5]triazine-2-amine]	–	> 64	–
Cl.O=C(CC(=O)c1ccc(Nc2nc(N3CCCCC3)nc(N3CCCCC3)n2)cc1)Nc1ccc(-c2ccccc2)cc1 [N-{4-[2-(biphenyl-44-ylcarbamoyl)-acetyl]-phenyl}-44,6-Bis-((3R,5S)-3,5-diamino-piperidin-1-yl)-[1,3,5]triazine-2-amine]	–	< 16	–
Cc1cc(Nc2nc(N3C[C@H](N)C[C@H](N)C3)nc(N3C[C@H](N)C[C@H](N)C3)n2)cc(Cl)c1NC(=O)c1ccc(Cl)cc1O [N-[3-chloro-4-(4-chloro-2-hydroxy-benzoylamino)-5-methyl-phenyl]-4,6-Bis-((3R,5S)-3,5-diamino-piperidin-1-yl)-[1,3,5]triazine-2-amine]	< 16	–	–
Cc1ccc(S(=O)(=O)N(Cc2ccccc2)c2ccc(Nc3nc(C4CCCCC4)nc(N4CCCCC4)n3)cc2O)cc1.Cl [N-{4-[4-((3S,5R)-3-Amino-5-hydroxy-piperidin-1-yl)-6-((3R,5S)-3,5-diamino-piperidin-1-l)-[1,3,5]triazin-2-ylamino]-2-hydroxy-phenyl}-N-benzyl-4-methyl-benzenesulfonamide]	–	< 64	–
N[C@@H]1C[C@H](N)CN(c2nc(Nc3ccc(NS(=O)(=O)c4ccccc4)c(O)c3)nc(N3C[C@H](N)C[C@H](N)C3)n2)C1 [N-(4-benzenesulfonylamino-3-hydroxy-phenyl)-4,6-Bis-((3R,5S)-3,5-diamino-piperidin-1-yl)-[1,3,5]triazine-2-amine]	< 64	–	–
NC[C@H]1[C@@H](O)CCN1c1nc(Nc2ccc(NC(=O)c3ccc(Cl)cc3)c(O)c2)nc(N2C[C@H](N)C[C@H](N)C2)n1 [N-{4-[4-((2S,3S)-2-Aminomethyl-3-hydroxy-pyrrolidin-1-yl)-6-((3R,5S)-3,5-diamino-piperidin-1-yl)-[1,3,5]triazin-2-ylamino]-2-hydroxy-phenyl}-4-chloro-benzamide]	< 64	–	–
N[C@@H]1C[C@H](N)CN(c2nc(Nc3ccc(C(=O)CC(=O)Nc4cccc(CO)c4)cc3)nc(N3C[C@H](N)C[C@H](N)C3)n2)C1 [N-{4-[2-(3-hydroxymethyl-phenylcarbamoyl)-acetyl]-phenyl}-4,6-Bis-((3R,5S)-3,5-diamino-piperidin-1-yl)-[1,3,5]triazine-2-amine]	> 64	–	–
N-(4-phenylazo-phenyl)-4,6-Bis-((3R,5S)-3,5-0diamino-piperidin-1-yl)-[1,3,5]triazine-2-amine	–	–	Potency (MIC) [1]: ++ (++ means MIC<16 μg/ml in E. coli or S. aureus)
N[C@@H]1C[C@H](N)CN(c2nc(Nc3ccc(NC(=O)c4ccc(Cl)cc4O)c(C(F)(F)F)c3)nc(N3C[C@H](N)C[C@H](N)C3)n2)C1 [N-[4-(4-chloro-2-hydroxy-benzoylamino)-3-trifluoromethyl-phenyl]-4,6-Bis-((3R,5S)-3,5-diamino-piperidin-1-yl)-[1,3,5]triazine-2-amine]	< 16	–	–
Cc1cc(Nc2nc(N3C[C@H](N)C[C@H](N)C3)nc(N3C[C@H](N)C[C@H](N)C3)n2)ccc1NC(=O)c1ccc(Cl)cc1O [N-[4-(4-chloro-2-hydroxy-benzoylamino)-3-methyl-phenyl]-4,6-Bis-((3R,5S)-3,5-diamino-piperidin-1-yl)-[1,3,5]triazine-2-amine]	< 16	–	–
N[C@@H]1C[C@H](N)CN(c2nc(Nc3ccc4c(c3)-c3ccccc3C4=O)nc(N3C[C@@H](N)C[C@@H](O)C3)n2)C1 [3-[4-((3S,5R)-3-Amino-5-hydroxy-piperidin-1-yl)-6-((3S,5R)-3,5-diamino-piperidin-1-yl)-[1,3,5]triazin-2-ylamino]-fluoren-9-one]	< 16	–	–
N[C@@H]1C[C@H](N)CN(c2nc(NNc3cccc(F)c3)nc(N3C[C@H](N)C[C@H](N)C3)n2)C1 [N-(4,6-Bis-((3R,5S)-3,5-diamino-piperidin-1-yl)-[1,3,5]triazin-2-yl)-N′-(3-Fluoro-phenyl)-hydrazine]	> 64	–	–
NCCN(CCN)c1nc(Nc2ccc(NC(=O)c3ccc4ccccc4c3O)cc2)nc(N2C[C@H](N)C[C@H](N)C2)n1 [1-Hydroxy-naphthalene-2-carboxylic acid {4-[4-[bis-(2-amino-ethyl)-amino]-6-((3R,5S)-3,5-diamino-piperidin-1-yl)-[1,3,5]triazin-2-ylamino]-phenyl}-amide]	< 16	–	–
N[C@@H]1C[C@H](N)CN(c2nc(Nc3ccc(S(=O)(=O)Nc4ccc5cn[nH]c5c4)cc3)nc(N3C[C@@H](N)[C@@H](N)C3)n2)C1 [4-[4-((3R,5S)-3,5-Diamino-piperidin-1-yl)-6-((3R,4S)-3,4-diamino-pyrrolidin-1-yl)-[1,3,5]triazin-2-ylamino]-N-(1H-indazol-6-yl)-benzenesulfonamide]	> 64	–	–
